{"source": "paper PMC7156612", "about": "“Olinciguat, an Oral sGC Stimulator, Exhibits Diverse Pharmacology Across Preclinical Models of Cardiovascular, Metabolic, Renal, and Inflammatory Disease” (Frontiers in Pharmacology, 2020)", "key": {"normotensive Wistar rats": {"tested_on": "normotensive Wistar rats", "assay": "Arterial hemodynamics by telemetry in normotensive Wistar rats", "format": "in vivo, rat", "experimental": "The Dataquest A.R.T.™ acquisition and analysis system (Data Sciences International [DSI], St. Paul, MN) was employed to monitor and analyze hemodynamic data from conscious, freely moving rats surgically implanted with a telemetry pressure transmitter (PA-C40). Telemetry transmitter implantation was performed on rats under sterile conditions. Rats were anesthetized with isoflurane and body temperature was maintained with a heating pad during surgery. A laparotomy was performed to expose the abdominal aorta. The catheter tip of the telemetry transmitter was inserted into the abdominal aorta and secured with a 5-0 silk suture (Ethicon, Inc., Somerville, NJ). The abdominal incision was closed with uninterrupted suture (4-0 silk, Ethicon, Inc., Somerville, NJ) and the telemetry transmitter was placed in the abdominal cavity and secured to the abdominal wall. Approximately 100 µl of 0.25% marcaine was applied directly to the closed abdominal wall, and the skin was then closed with suture (4-0 Vicryl® absorbable, Ethicon, Inc., Somerville, NJ). Buprenorphine (0.05 mg/kg/day, subcutaneous [s.c.]) was administered immediately after the surgery for postoperative pain relief. After recovery from anesthesia, rats were returned to their home cages, placed on DSI receivers, and allowed a 5- to 14-day recovery period. Arterial hemodynamics were measured continuously and recorded throughout the study. For acute studies, analysis was based on hourly averages, for chronic studies, analysis was based on daily or weekly averages.\nSpontaneously hypertensive rats (SHRs) (n=6, male, 230–250 g, 14 weeks of age) and Wistar rats (n=6, male, 230–250 g, 12 weeks of age) were implanted with telemetry transmitters as described above. Olinciguat was formulated as a suspension in a vehicle containing 0.5% methylcellulose and 0.2% Tween. Rats were p.o. dosed with a dosing volume of 5 ml/kg. […] Using plasma from tail vein, olinciguat plasma concentrations were determined at 1, 6, and 24 h post-dose on day 4 and reported as the mean from Wistar (n=3) and SHR (n=3). Hemodynamics were recorded hourly during a 24-h baseline period and over the first 3 days of dosing.\nMaximum change from baseline of mean arterial pressure (MAP) was calculated using the 24-h pre-first dose average subtracted from the lowest MAP value recorded within 2 h following dosing. The 1-h post-dose change from baseline heart rate (HR) was calculated using the 3-h pre-first dose average subtracted from the 1-h post-dose average.\nIn the hemodynamic study in Wistar and SHR, hourly MAP data were analyzed using a repeated measures two-way ANOVA, with time and treatment group as independent variables. Significance at each timepoint was determined as compared to the vehicle control using a Dunnett's post-hoc test."}, "[1]": {"assay": "Quantitative whole-body autoradiography in Long-Evans rats", "format": "in vivo, rat", "conditions": "single p.o. 3 mg/kg, 14C-derived radioactivity", "experimental": "Quantitative whole-body autoradiography (QWBA) assays were performed at QPS, LLC (Newark, DE) as described previously (Solon et al., 2002). Male Long-Evans (LE) rats (218–262 g, n=11, Hilltop Lab Animals, Inc., Scottdale, PA) were studied. All rats were administered a single p.o. dose of [^14C]-olinciguat at a target dose of 3 mg/kg and approximately 200 µCi/kg formulated in PEG 400 in water (60:40 v/v). Immediately prior to euthanasia, blood was obtained via cardiac puncture for plasma radioactivity determinations by liquid scintillation counting. At each timepoint (1, 2, 4, 8, 12, 24, 48, 72, 96, 168, and 504 h post-dose), one rat was euthanized by immersion in a hexane/solid carbon dioxide bath and frozen for at least 15 min for QWBA analysis. Each frozen rat carcass was embedded in a 2% carboxymethylcellulose matrix with a microtome stage at −20°C. Concentrations of radioactivity were used to determine the concentration of compound equivalents in each tissue and in plasma using the Specific Activity of 66.7 µCi/mg of [^14C]-olinciguat. Whole body sections for each rat were mounted on a cardboard backing, covered with thin plastic wrap, and exposed along with calibration standards of [^14C]-glucose at 10 different concentrations (0.00096 to 7.8 µCi/g) to a ^14C-sensitive phosphor imaging plate (Fuji Biomedical, Stamford, CT). Imaging plates were scanned using the Typhoon 9410 image acquisition system (GE/Molecular Dynamics, Sunnyvale, CA, USA). Radioactivity concentration in tissues was quantified by image densitometry using MCID image analysis software (v. 7.0, Interfocus Imaging Ltd) and a standard curve constructed from the integrated response (molecular dynamics counts/mm^2) and the nominal concentrations of [^14C]-glucose standards. Tissue concentration data were obtained for virtually all tissues (see Supplemental Materials). The concentrations of radioactivity were expressed as the microgram equivalents of [^14C]-olinciguat per gram of sample. An upper and lower limit of quantification, determined by using the radioactive concentration of the highest and lowest calibration standards divided by the specific activity of the test article in formulation, was applied to the data. Phoenix® WinNonLin® v.6.3 was used to determine PK parameters, including maximal concentration (Cmax) and area under the curve of all observed points (AUCall). Tissue:plasma AUCall ratios were determined."}, "[2]": {"assay": "Plasma protein binding (equilibrium dialysis), human", "format": "in vitro ADME", "conditions": "1 and 10 μM, equilibrium dialysis 18 h, read-out: bound to plasma proteins (converted)", "experimental": "Concentrated (10 mM) DMSO stock solutions of olinciguat were diluted to 1 and 10 μM in 2.5 ml of rat (male and female Sprague Dawley) and human plasma. Concentrated [^14C]-labeled olinciguat (1 μl,1 mCi/ml stock concentration) was spiked into each sample and mixed by vortexing. Triplicate 500 μl aliquots of plasma containing [^14C]-labeled olinciguat were transferred to a Rapid Equilibrium Dialysis system and dialyzed (molecular weight cut-off ~8000 Da) against 500 μl of phosphate-buffered saline (PBS) at room temperature for 18 h. Radioactivity of [^14C]-labeled olinciguat in PBS and plasma samples was measured using liquid scintillation counting."}}, "note": "Several values for one entry are separate records, joined by “and”; a condition that tells them apart may be missing. Equal entries are not always repeated."}
{"smiles": "NC(=O)[C@](O)(CNc1nc(-c2cc(-c3ccon3)n(Cc3ccccc3F)n2)ncc1F)C(F)(F)F", "note": "[olinciguat, (R)-3,3,3-trifluoro-2-(((5-fluoro-2-(1-(2-fluorobenzyl)-5-(isoxazol-3-yl)-1H-pyrazol-3-yl)pyrimidin-4-yl)amino)methyl)-2-hydroxypropanamide]", "values": [{"measurement": "MAP vs vehicle-treated rats", "setting": "normotensive Wistar rats; 1 mg/kg p.o. QD", "result": "not significantly different from vehicle at any time"}, {"measurement": "MAP vs vehicle-treated rats", "setting": "normotensive Wistar rats; 3 mg/kg p.o. QD", "result": "lower only on the second and third day of dosing"}, {"measurement": "MAP vs vehicle-treated rats", "setting": "normotensive Wistar rats; 10 mg/kg p.o. QD", "result": "lower on all 3 days of dosing"}, {"measurement": "maximum absolute change in MAP", "setting": "normotensive Wistar rats; 10 mg/kg p.o. QD, day 3, 10 mg/kg", "result": "−11 ± 3 mmHg and −11^b mmHg"}, {"measurement": "AUCall blood-to-plasma ratio", "setting": "[1]", "result": 0.73}, {"measurement": "tissue:plasma AUCall ratio, adrenal gland", "setting": "[1]", "result": 2.41}, {"measurement": "tissue:plasma AUCall ratio, cecum", "setting": "[1]", "result": 4.63}, {"measurement": "tissue:plasma AUCall ratio, esophagus", "setting": "[1]", "result": 2.01}, {"measurement": "tissue:plasma AUCall ratio, kidney cortex", "setting": "[1]", "result": 13.6}, {"measurement": "tissue:plasma AUCall ratio, kidney medulla", "setting": "[1]", "result": 5.14}, {"measurement": "tissue:plasma AUCall ratio, liver", "setting": "[1]", "result": 50.3}, {"measurement": "tissue:plasma AUCall ratio, remaining eight tissues (all four measured regions of the brain, spinal cord, bone, eye lens)", "setting": "[1]", "result": "≤ 0.1"}, {"measurement": "tissue:plasma AUCall ratio, small intestine", "setting": "[1]", "result": 27.5}, {"measurement": "tissue:plasma AUCall ratio, urinary bladder", "setting": "[1]", "result": 2.62}, {"measurement": "tissue:plasma ratio, aorta", "setting": "[1]", "result": 0.92}, {"measurement": "tissue:plasma ratio, brown adipose", "setting": "[1]", "result": 1.16}, {"measurement": "tissue:plasma ratio, heart", "setting": "[1]", "result": 0.84}, {"measurement": "tissue:plasma ratio, lung", "setting": "[1]", "result": 0.86}, {"measurement": "tissue:plasma ratio, skeletal muscle", "setting": "[1]", "result": 0.52}, {"measurement": "tissue:plasma ratio, white adipose", "setting": "[1]", "result": 0.67}, {"measurement": "fraction unbound at 18 h", "setting": "[2]", "result": 0.0199}]}
